This is an account of results in US20240350660A1, “Compositions and Methods for Increasing Bioavailability Using Cyclodextrin Modification” (priority 2021, published 2024).

By inhibition is commonly meant the relative decrease from the control value, in per cent.

In experiment [1] the test system is mouse model of diabetes (streptozotocin-induced). As to the kind of experiment: Streptozotocin-induced diabetes mouse model, blood glucose 4 hours post treatment. The format is in vivo, mice (C57BL/6). The protocol: Eight week old male C57BL/6 strain of mice were used. The mice were fed on standard diet and water ad libitum. Diabetes was induced by intraperitoneal injection of 60 mg/kg of a freshly prepared streptozotocin (STZ) dissolved in 0.1 M cold citrate buffer at a pH of 4.5. Body weight, food, and fluid intake were monitored daily. Induction was continued for 7 consecutive days until chronic polydipsia and polyuria was established. Post-prandial blood glucose levels were measured by blood glucose strips, and mice with levels higher than 400 mg/dL were defined as chronically diabetic and chosen for experiments. Test animals were treated with product by oral gavage. For a given product, n=6 animals were treated. Blood samples for whole blood glucose were obtained from the tail tip 4 hours post treatment, and blood glucose levels were measured by Roche blood glucose strips. Means and standard error of the means were calculated. Differences in mean post-prandial blood glucose 4 hours post treatment of animals treated with product and untreated control […] diabetic animals (n=6) were calculated. Relative clinical effects of the products tested were determined by comparing the difference in blood glucose of treated relative to untreated controls.

Experiment [2] has as its system SARS-COV-2. Put plainly: Human ACE2 transgenic COVID-19 mouse model (body weight, survival). The class given is in vivo, hACE2 transgenic mice. The settings on record: Daily.
For experiment [3], the system named is SARS-COV-2. As to the kind of experiment: SARS-COV-2 replication in Vero E6 cells in vitro (viral load by RT-PCR). The format is cell-based. The settings on record: Severe acute respiratory syndrome coronavirus 2, Vero C1008; FIG. 3; cells treated at 1 μM final concentration; complexes at 1:1 molar ratio; read-out: Inhibition of SARS-COV-2 replication over untreated.

[4] abbreviates: 25 mg/kg oral gavage, n=6, glucose levels given in mg/dL.
[5] abbreviates: 200 mg/kg, Pretreatment to Day 7.

`OC[C@H]1O[C@@H]2O[C@H]3[C@H](O)[C@@H](O)[C@@H](O[C@H]4[C@H](O)[C@@H](O)[C@@H](O[C@H]5[C@H](O)[C@@H](O)[C@@H](O[C@H]6[C@H](O)[C@@H](O)[C@@H](O[C@H]7[C@H](O)[C@@H](O)[C@@H](O[C@H]8[C@H](O)[C@@H](O)[C@@H](O[C@H]1[C@H](O)[C@H]2O)O[C@@H]8CO)O[C@@H]7CO)O[C@@H]6CO)O[C@@H]5CO)O[C@@H]4CO)O[C@@H]3CO` [Betacyclodextrin alone, beta-cyclodextrin]: in experiment [1] (setting [4]), the “Difference in 4 h Blood Glucose vs. Untreated” value (from here on “Difference”) came to 35.46.

Take `Cc1cnc(C(=O)NCCc2ccc(S(=O)(=O)NC(=O)NC3CCCCC3)cc2)cn1` [Glipizide]: in experiment [1] (5 mg/kg oral gavage, n=6), the “Difference” value was found to be 198.0.

Regarding `CN(C)C(=N)N=C(N)N` [Metformin], the “Difference” value is recorded as 173.9 in experiment [1] (200 mg/kg oral) and 181.7 in experiment [1] (250 mg/kg oral gavage, n=6). As for `O=c1c(O)c(-c2ccc(O)c(O)c2)oc2cc(O)cc(O)c12` [Quercitin], the Survival was determined as 80% with SARS-COV-2 [2] (66 mg/kg, Pretreatment to Day 7) and 100% in the experiment with SARS-COV-2 [2] (setting [5]). For the compound `CCC(CC)COC(=O)[C@H](C)N[P@](=O)(OC[C@H]1O[C@@](C#N)(c2ccc3c(N)ncnn23)[C@H](O)[C@@H]1O)Oc1ccccc1` [Remdesivir], the Survival is reported as 100% in the experiment with SARS-COV-2 [2] (50 mg/kg, Day 1 post-treatment to 7) and 100% in the experiment with SARS-COV-2 [2] (setting [5]). Take `COc1cc(/C=C/C(=O)CC(=O)/C=C/c2ccc(O)c(OC)c2)ccc1O` [Unconjugated Curcumin, curcumin]: the “Difference” value in experiment [1] (5 mg/kg oral gavage, n=6) is given as 29.8; in experiment [1] (setting [4]) it was 60.22. In the case of `C[C@@H]1O[C@@H](OC[C@H]2O[C@@H](Oc3c(-c4ccc(O)c(O)c4)oc4cc(O)cc(O)c4c3=O)[C@H](O)[C@@H](O)[C@@H]2O)[C@H](O)[C@H](O)[C@H]1O` [rutin], the inhibition at 1 µM with SARS-COV-2 [3] was about 25%.

Regarding Insulin, the entries for the “Difference” value in experiment [1] (0.5 IU sc) and in experiment [1] (1 IU sc) were 203.2 and 236.2, respectively.
